Results from patent US20260225997A1, “IONIZABLE AMINE LIPIDS” (Intellia Therapeutics, Inc., priority 2018, published 2026).

System: B2M
Assay: B2M editing in mouse liver by NGS after i.v. LNP delivery of Cas9 mRNA and sgRNA
Format: in vivo
Settings: for Editing (%) of B2M in mouse liver: Example 52: LNP single dose 0.1 mg/kg i.v., sgRNA G650:Cas9 mRNA 1:1, NGS; for Editing (%) of B2M in mouse liver / Editing (%) B2M liver / % Editing B2M in mouse liver: CD-1 female mice; for Editing (%) B2M liver: 6 days post-dose; for Editing (%) B2M liver / % Editing B2M in mouse liver: G650 1:1; for % Editing B2M in mouse liver: 7 days post-dose
Protocol: Preparations of various LNP compositions were prepared with amine lipids. In assays for percent liver editing in mice, Cas9 mRNA and chemically modified sgRNA were formulated in LNPs, at either a 1:1 w/w ratio or a 1:2 w/w ratio. LNPs are formulated with a composition of a given ionizable lipid (e.g. an amine lipid), DSPC, cholesterol, and PEG-2k-DMG, with a 6.0 N:P ratio.
LNPs were administered to mice by a single dose at 0.1 mg/kg, unless otherwise noted and genomic DNA was isolated for NGS analysis as described below.
CD-1 female mice, ranging from 6-10 weeks of age were used in each study. Animals were weighed and grouped according to body weight for preparing dosing solutions based on group average weight. LNPs were dosed via the lateral tail vein in a volume of 0.2 mL per animal (approximately 10 mL per kilogram body weight). The animals were periodically observed post dose for adverse effects for at least 24 hours post dose. Animals were euthanized at 6 or 7 days by exsanguination via cardiac puncture under isoflurane anesthesia. Blood was collected into serum separator tubes or into tubes containing buffered sodium citrate for plasma as described herein. For studies involving in vivo editing, liver tissue was collected from each animal for DNA extraction and analysis.
Cohorts of mice were measured for liver editing by Next-Generation Sequencing (NGS).
In brief, to quantitatively determine the efficiency of editing at the target location in the genome, genomic DNA was isolated and deep sequencing was utilized to identify the presence of insertions and deletions introduced by gene editing.
PCR primers were designed around the target site (e.g., B2M), and the genomic area of interest was amplified. Additional PCR was performed according to the manufacturer's protocols (Illumina) to add the necessary chemistry for sequencing. The amplicons were sequenced on an Illumina MiSeq instrument. The reads were aligned to the […] after eliminating those having low quality scores. The resulting files containing the reads were mapped to the reference genome (BAM files), where reads that overlapped the target region of interest were selected and the number of wild type reads versus the number of reads which contain an insertion, substitution, or deletion was calculated.
The editing percentage (e.g., the “editing efficiency” or “percent editing”) is defined as the total number of sequence reads with insertions or deletions over the total number of sequence reads, including wild type.
CD-1 female mice were dosed i.v. at 0.1 mpk or 0.3 mpk. […] For animals dosed with G282 targeting TTR, blood and the liver were collected and serum TTR and editing were measured. For animals dosed with G650 targeting B2M, liver was collected and editing was measured.

[1] = Example 53 text: 0.1 mpk vs 0.3 mpk

| Structure (SMILES) | Editing (%) of B2M in mouse liver [%] | Editing (%) B2M liver (Example 53: 0.1 mpk i.v.) [%] | Editing (%) B2M liver (Example 53: 0.3 mpk i.v.) [%] | B2M editing in the liver compared with Compound 19 (Example 53 text: 0.1 and 0.3 mpk) | dose response of B2M editing in liver [1] | % Editing B2M in mouse liver (Example 54: 0.1 mpk i.v.) [%] | % Editing B2M in mouse liver (Example 54: 0.3 mpk i.v.) [%] | dose response of B2M editing in liver (Example 54 text: 0.1 mpk vs 0.3 mpk, 7 days) |
| --- | --- | --- | --- | --- | --- | --- | --- | --- |
| CCCCCCCCCOC(=O)CCCCCCCN(CCO)CCCCCCCC(OCCCCCCCC)OCCCCCCCC [Compound 1, nonyl 8-((8,8-bis(octyloxy)octyl)(2-hydroxyethyl)amino octanoate] | 36.8 | 41.0 | 62.9 | higher B2M editing in the liver than Compound 19 at each dose | increased editing of B2M in liver significantly between the 0.1 mpk and 0.3 mpk doses |  |  |  |
| CCCCC/C=C\C/C=C\CCCCCCCC(=O)OCC(COC(=O)CCC(OCCCCCCCC)OCCCCCCCC)COC(=O)OCCCN(CC)CC (stereo not drawn) [Compound 19, 3-((4,4-bis(octyloxy)butanoyl)oxy)-2-(((((3-(diethylamino)propoxy))-carbonyl)oxy)methyl)propyl (9Z,12Z)-octadeca-9,12-dienoate, reference compound] | 12.0 | 25.5 | 43.4 |  | increased editing of B2M in liver significantly between the 0.1 mpk and 0.3 mpk doses | 13 | 44 | increased editing at the 0.3 mpk dose compared to the 0.1 mpk dose |
